Assay results as given in ChEMBL document CHEMBL1201862, “PubChem BioAssay data set” (2004).
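Five concentrations, 48 hours, 96-well plates. GI50 is the concentration that inhibits growth by half.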 Active and inactive are the calls of the source. Cut-off read from the data, not from the text of the source: active = GI50 up to about 1.1 µM and inactive = higher.

Columns and labels:
Assay in all cases: growth of human tumour cells (NCI), 48 h
786-0 = test system: 786-0
A498 = test system: A498
A549 = test system: A549
ACHN = test system: ACHN
BT-549 = test system: BT-549
CAKI-1 = test system: CAKI-1
HCT-116 = test system: HCT-116
HCT-15 = test system: HCT-15
HL-60 = test system: HL-60
HOP-62 = test system: HOP-62
HOP-92 = test system: HOP-92
Hs-578T = test system: Hs-578T
M14 = test system: M14
MDA-MB-231 = test system: MDA-MB-231
NCI-H226 = test system: NCI-H226
NCI-H522 = test system: NCI-H522
OVCAR-8 = test system: OVCAR-8
SK-MEL-28 = test system: SK-MEL-28
T47D = test system: T47D
MCF7 = test system: MCF7

SMILES	GI50 (786-0)	GI50 (A498)	GI50 (A549)	GI50 (ACHN)	GI50 (BT-549)	GI50 (CAKI-1)	GI50 (HCT-116)	GI50 (HCT-15) [µM]	GI50 (HL-60)	GI50 (HOP-62)	GI50 (HOP-92)	GI50 (Hs-578T)	GI50 (M14)	GI50 (MDA-MB-231)	GI50 (NCI-H226)	GI50 (NCI-H522)	GI50 (OVCAR-8)	GI50 (SK-MEL-28)	GI50 (T47D)	GI50 (MCF7)
Cc1cccc2c1Oc1ccccc1C2NC(=O)c1ccc([N+](=O)[O-])cc1 (centres undefined)	> 100 µM (inactive)	76.4 µM (inactive)	> 100 µM (inactive)	> 100 µM (inactive)	56 µM (inactive)	69 µM (inactive)	> 100 µM (inactive)	> 100	> 100 µM (inactive)	28.8 µM (inactive)	> 100 µM (inactive)	29.4 µM (inactive)	> 100 µM (inactive)	66.1 µM (inactive)	15.6 µM (inactive)	> 100 µM (inactive)	> 100 µM (inactive)	> 100 µM (inactive)	> 100 µM (inactive)	–
COc1cc(S(=O)(=O)Nc2ccc(-c3csc(N4C(=O)CSC4c4ccccc4)n3)cc2)ccc1Cl (centres undefined)	76.2 µM (inactive)	0.116 µM (active)	0.785 µM (active)	15.2 µM (inactive)	75.5 µM (inactive)	> 100 µM (inactive)	54 µM (inactive)	> 100	20.8 µM (inactive)	81.8 µM (inactive)	20.6 µM (inactive)	55.6 µM (inactive)	43.8 µM (inactive)	–	94.4 µM (inactive)	34.4 µM (inactive)	> 100 µM (inactive)	22.9 µM (inactive)	16.3 µM (inactive)	22.6 µM (inactive)
COC(=O)c1cc(C)ccc1/C=C1\Cc2cc(C)c(C)cc2C1=O	55.8 µM (inactive)	68.9 µM (inactive)	> 100 µM (inactive)	> 100 µM (inactive)	> 100 µM (inactive)	> 100 µM (inactive)	> 100 µM (inactive)	> 100	> 100 µM (inactive)	39 µM (inactive)	36.2 µM (inactive)	38.8 µM (inactive)	> 100 µM (inactive)	> 100 µM (inactive)	> 100 µM (inactive)	> 100 µM (inactive)	> 100 µM (inactive)	> 100 µM (inactive)	> 100 µM (inactive)	–
c1cncc(-c2ncc3cccnc3n2)c1	> 100 µM (inactive)	> 100 µM (inactive)	> 100 µM (inactive)	> 100 µM (inactive)	> 100 µM (inactive)	> 100 µM (inactive)	> 100 µM (inactive)	> 100	> 100 µM (inactive)	> 100 µM (inactive)	> 100 µM (inactive)	> 100 µM (inactive)	–	> 100 µM (inactive)	> 100 µM (inactive)	> 100 µM (inactive)	> 100 µM (inactive)	–	–	> 100 µM (inactive)
Cc1ccc(SC(=O)N2C(=S)N=C(NC3CCCCC3)C23CCCCC3)cc1	> 100 µM (inactive)	–	75.5 µM (inactive)	80 µM (inactive)	57.5 µM (inactive)	> 100 µM (inactive)	> 100 µM (inactive)	87.9	38.6 µM (inactive)	> 100 µM (inactive)	> 100 µM (inactive)	62.2 µM (inactive)	> 100 µM (inactive)	> 100 µM (inactive)	–	65.8 µM (inactive)	–	> 100 µM (inactive)	52.1 µM (inactive)	51.2 µM (inactive)
SC[C@@H]1COC[C@H](CS)S1	> 100 µM (inactive)	–	> 100 µM (inactive)	–	> 100 µM (inactive)	–	> 100 µM (inactive)	> 100	> 100 µM (inactive)	> 100 µM (inactive)	–	–	> 100 µM (inactive)	> 100 µM (inactive)	–	> 100 µM (inactive)	> 100 µM (inactive)	> 100 µM (inactive)	> 100 µM (inactive)	> 100 µM (inactive)
CC(C)(C)C1CCC2c3c([nH]c4ccccc34)C3C(=O)N(c4cc(Br)cc(Br)c4)C(=O)C3C2C1 (centres undefined)	6.95 µM (inactive)	19.7 µM (inactive)	14.8 µM (inactive)	20 µM (inactive)	33.9 µM (inactive)	13.7 µM (inactive)	4.34 µM (inactive)	25.4	2.55 µM (inactive)	18.7 µM (inactive)	2.63 µM (inactive)	7 µM (inactive)	25.4 µM (inactive)	27 µM (inactive)	21.9 µM (inactive)	20.9 µM (inactive)	16 µM (inactive)	13.2 µM (inactive)	–	3.2 µM (inactive)
Nc1ccc2c3c1cccc3c(=O)n1c3ccc(Cc4ccc5c(c4)nc4c6ccc(N)c7cccc(c(=O)n54)c76)cc3nc21	> 100 µM (inactive)	> 100 µM (inactive)	> 100 µM (inactive)	> 100 µM (inactive)	> 100 µM (inactive)	> 100 µM (inactive)	> 100 µM (inactive)	–	> 100 µM (inactive)	> 100 µM (inactive)	> 100 µM (inactive)	–	> 100 µM (inactive)	> 100 µM (inactive)	> 100 µM (inactive)	> 100 µM (inactive)	> 100 µM (inactive)	> 100 µM (inactive)	–	> 100 µM (inactive)
Oc1ccc([C@H]2c3c(O)cc(O)cc3C3c4c(cc(O)cc4[C@@H]2[C@H]2c4cc(O)cc5c4C(c4cc(O)cc(O)c4[C@@H]2c2ccc(O)cc2)[C@@H](c2ccc(O)cc2)O5)O[C@@H]3c2ccc(O)cc2)cc1 (some centres undefined)	4.94 µM (inactive)	–	0.634 µM (active)	6.93 µM (inactive)	> 100 µM (inactive)	> 100 µM (inactive)	0.861 µM (active)	> 100	2.48 µM (inactive)	1.09 µM (active)	–	0.0497 µM (active)	6.25 µM (inactive)	> 100 µM (inactive)	> 100 µM (inactive)	7.45 µM (inactive)	2.69 µM (inactive)	0.182 µM (active)	0.536 µM (active)	0.955 µM (active)
O=C1/C(=C\c2ccc(Cl)cc2)N=C(c2ccccc2)N1n1c(=O)cn[nH]c1=S	18.4 µM (inactive)	> 100 µM (inactive)	> 100 µM (inactive)	> 100 µM (inactive)	28.5 µM (inactive)	40.2 µM (inactive)	68.2 µM (inactive)	21.5	18.2 µM (inactive)	52.2 µM (inactive)	–	–	> 100 µM (inactive)	–	–	15.8 µM (inactive)	21.8 µM (inactive)	> 100 µM (inactive)	13.5 µM (inactive)	18.4 µM (inactive)
COC(=O)c1cc(NC(=O)c2cc(NC(=O)Cc3c[nH]c4ccccc34)cn2C)cn1C	56.9 µM (inactive)	24 µM (inactive)	29.4 µM (inactive)	35.7 µM (inactive)	37.3 µM (inactive)	57.1 µM (inactive)	27.2 µM (inactive)	42.8	34.6 µM (inactive)	> 100 µM (inactive)	–	–	33 µM (inactive)	25.9 µM (inactive)	30.8 µM (inactive)	–	39.4 µM (inactive)	35.9 µM (inactive)	> 100 µM (inactive)	36.5 µM (inactive)
O=C1Nc2ccccc2C1Cc1ccc([N+](=O)[O-])cc1 (centres undefined)	> 100 µM (inactive)	–	> 100 µM (inactive)	> 100 µM (inactive)	> 100 µM (inactive)	> 100 µM (inactive)	> 100 µM (inactive)	> 100	5.57 µM (inactive)	> 100 µM (inactive)	–	63.4 µM (inactive)	> 100 µM (inactive)	14 µM (inactive)	> 100 µM (inactive)	35.9 µM (inactive)	> 100 µM (inactive)	> 100 µM (inactive)	> 100 µM (inactive)	> 100 µM (inactive)
Nc1ccc2c(c1)C(=O)N1CCC[C@H]1C(=O)N2	> 100 µM (inactive)	> 100 µM (inactive)	> 100 µM (inactive)	> 100 µM (inactive)	> 100 µM (inactive)	> 100 µM (inactive)	> 100 µM (inactive)	> 100	–	> 100 µM (inactive)	> 100 µM (inactive)	–	> 100 µM (inactive)	> 100 µM (inactive)	> 100 µM (inactive)	> 100 µM (inactive)	> 100 µM (inactive)	> 100 µM (inactive)	> 100 µM (inactive)	> 100 µM (inactive)
COC(=O)C1=C(C(=O)OC)C(C(=O)c2ccc(Br)cc2)N2N=C(c3ccc(Cl)cc3)C=CC12 (centres undefined)	> 100 µM (inactive)	> 100 µM (inactive)	98.2 µM (inactive)	> 100 µM (inactive)	34.8 µM (inactive)	80.7 µM (inactive)	> 100 µM (inactive)	> 100	> 100 µM (inactive)	> 100 µM (inactive)	72.1 µM (inactive)	> 100 µM (inactive)	> 100 µM (inactive)	> 100 µM (inactive)	> 100 µM (inactive)	26.2 µM (inactive)	> 100 µM (inactive)	> 100 µM (inactive)	–	82.8 µM (inactive)
N#Cc1c(-c2ccc(Cl)cc2)c2c([nH]c1=O)-c1ccccc1SC2	39.8 µM (inactive)	> 100 µM (inactive)	30.3 µM (inactive)	–	> 100 µM (inactive)	47.2 µM (inactive)	35.4 µM (inactive)	70.6	21 µM (inactive)	32.1 µM (inactive)	17.7 µM (inactive)	67.9 µM (inactive)	> 100 µM (inactive)	29.1 µM (inactive)	38.6 µM (inactive)	–	57.5 µM (inactive)	> 100 µM (inactive)	–	27.5 µM (inactive)
